Assay results taken from article PMC11676667, “Pharmacokinetics of Oral Cannabinoid Δ8-Tetrahydrocannabivarin and Its Main Metabolites in Healthy Participants” (Pharmaceuticals, 2024).

Test: Plasma pharmacokinetics after single oral dose of Δ8-THCV in MCT oil (LC-MS/MS, non-compartmental analysis)
Format: in vivo, human
Details: of 504 plasma samples from 15 participants after oral Δ8-THCV
Protocol: The study was a two-phase, dose-ranging, placebo-controlled trial in 21 healthy participants to assess the safety, tolerability, PK, and PD of an oral formulation of Δ8-THCV. A detailed description of the study was published elsewhere. The study product was a medium-chain triglyceride (MCT) oil oral formulation of Δ8-THCV at a concentration of 50 mg/mL. […] MCT oil was used as placebo.
Twenty-one participants were enrolled in the clinical study and plasma samples from 15 participants were sent to our laboratory for pharmacokinetic evaluation. Of these, 3 participants were enrolled in Phase 1, an unblinded, placebo-controlled, single ascending dose design and 12 were enrolled in Phase 2, a double-blind, randomized, placebo-controlled, within-participant crossover design. At each study session, participants received one of the following oral doses: placebo, 12.5 mg, 25 mg, 50 mg, 100 mg, and 200 mg of the aforementioned Δ8-THCV formulation in MCT. Study visits were separated by a washout period of a minimum of one week and maximum of 28 days. Participants entered the research facility the night before the session and received the study product in the morning after a standardized high-fat, high-calorie breakfast. PK blood samples included in this analysis were collected prior to dosing and 0.5, 1, 2, 4, 6, and 8 h after dose. Immediately following collection into K2EDTA tubes, blood samples were placed on wet ice, centrifuged, and plasma was immediately frozen at −80 °C until shipment to the bioanalytical laboratory (iC42 Clinical Research and Development, University of Colorado, Aurora, CO, USA) on dry ice.
Plasma samples were analyzed using a validated high-performance liquid chromatography–tandem mass spectrometry (LC-MS/MS) assay. The assay included Δ8-THCV and its main metabolites 11-OH-Δ8-THCV and Δ8-THCV-COOH, Δ9-THCV and its main metabolite Δ9-THCV-COOH, and Δ9-THC and Δ8-THC as well as their main metabolites (Figure 3). The complete list of analyzed compounds and a summary of the key performance parameters of the assay are presented in Appendix A and Table A1 and Table A2. […] For the PK analysis, concentrations below the lower limit of quantification were set to 0 ng/mL. PK parameters were calculated using non-compartmental analysis (Phoenix WinNonlin version 8.4., Certara, Princeton, NJ, USA). Statistical analysis was carried out using GraphPad Prism (version 10, Boston, MA, USA).

Compound	number of positive plasma samples
CCCCCc1cc(O)c2c(c1)OC(C)(C)[C@@H]1CC=C(C)CC21 (some centres unmarked) [Δ8-THC, Δ8-tetrahydrocannabinol, reference compound]	No positive samples
CCCCCc1cc(O)c2c(c1)OC(C)(C)[C@@H]1CCC(C)=CC21 (some centres unmarked) [Δ9-THC, Δ9-tetrahydrocannabinol, reference compound]	No positive samples
